The results in this text go back to a melting point compilation (Tetko et al.; mined from patent text by program, amines drawn as free bases though some values may be those of a salt).

For the molecule `O=C(O)CCCCCCCCCCCOC(=O)OCC(Cl)(Cl)Cl`, the melting point lay in the range of 44.6 to 46.4 °C.

In turn, `COc1cc(OC)c(-c2cc3ccccc3s2)cc1/C=C/C(=O)c1ccc(C(=O)NCC(F)(F)F)cc1` had a melting point of 215 to 217 °C.

In turn, `COc1ccc2c(c1)CC[C@@H]1[C@@H]2CC[C@@]2(C)[C@H]1CCC2(OC)OC` returned a melting point of 104 to 116 °C.

Turning to `CC(C)n1nc(C(Cl)C(=O)c2ccccc2)ccc1=O` (centres undefined), the melting point fell in the range of 86.5 to 87.5 °C.

`Clc1ccc(C=NCCN=Cc2ccc(Cl)nc2)cn1` had a melting point of 170 °C.

Take `Clc1cc(OC[C@@H]2CCN2)cnc1Cl`: the melting point is 59 to 60 °C.

`CC(=O)N(O)CCc1ccc2c(c1)C(=O)c1ccccc1CO2` registered a melting point of 113 to 115 °C.

In turn, `CON=C(C(=O)N(C)C)C(C)=NOCc1ccc(C)cc1` gave a melting point of 68 to 69 °C.

`O=C1Nc2ccccc2S(=O)c2ccccc21` (centres undefined): the melting point lay in the range of 308 to 310 °C.

As for `Nc1nc(N)c2c(n1)CCC(Cc1ccccc1Cl)C2` (centres undefined), the melting point stood at 134 °C.

Take `O=C(c1ccco1)n1sc2ccccc2c1=O`: the melting point lay in the range of 157 to 161 °C.

As to `Cc1nsc(Cl)c1CS(=O)(=O)C1=NOC(C)(C)C1`, the melting point lay in the range of 113 to 114 °C.

In turn, `COCCOc1ccc(-c2cncc(C#N)c2Nc2ccc3[nH]ccc3c2C)cc1` showed a melting point of 208 to 210 °C.

Take `COc1c(OCC(F)(F)F)ccnc1CO`: the melting point lay in the range of 107 to 108 °C.

Consider `Cc1nc2c(s1)-c1nc(NC(=O)c3ccccc3)ncc1CC2`, for which the melting point is 229 to 231 °C.

Regarding `CS(=O)(=O)c1ccc(C(CC2CCCC2)C(=O)O)cc1Br` (centres undefined), the melting point fell in the range of 149 to 150 °C.

`COCOc1cccc2c(=O)[nH]c(CCCCN(C)C)cc12` returned a melting point of 109 to 111 °C.

`BrCc1ccc(CBr)c(Br)c1`: the melting point was 90 to 91 °C.

With `CCCn1c(COCC)nc2c(N)nc3ccc(OCCNS(C)(=O)=O)cc3c21`, the melting point was 178 to 180 °C.

For `COc1cc2cc(COC(C)=O)c(COC(C)=O)c(C=O)c2cc1OC`, the melting point is 154 to 155 °C.

`COC(=O)c1snc(-c2ccc(C#N)cc2)c1C(=O)OC` registered a melting point of 134 to 135 °C.

In turn, `O=c1[nH]c2ccc(C(O)CCN3CCC(Cc4ccccc4)CC3)cc2[nH]1` (centres undefined) had a melting point of 240 to 244 °C.

Take `CN(C(=S)Nc1ccc(Cl)cc1Cl)c1cccc(C(=CCCCC(=O)O)c2cccnc2)c1`: the melting point is 124 to 126 °C.

On to `COc1ccc(-c2nc(C)n(CCC(C)(C)NCC(O)c3ccc(O)c(CO)c3)n2)cc1` (centres undefined), for which the melting point lay in the range of 110 to 116 °C.

The molecule `COCCn1nc2c3c(c(NCCNCCO)ccc31)C(=O)c1c(O)ccc(O)c1-2` showed a melting point of 174 to 178 °C.

As to `O=S(=O)(N[C@H]1CC[C@H](CCN2CCN(c3nccc4c3OCC4)CC2)CC1)c1ccc(F)cc1`, the melting point came to 148 °C.

On to `CCN(CC)C(=O)O[C@@H]1[C@@H](c2ccccc2)Nc2c(ccn3c(C)c(C)nc23)[C@H]1OC`, for which the melting point was 97 to 98 °C.

In the case of `N#Cc1cccc(C2C(=O)c3ccccc3C2=O)c1`, the melting point was 179 to 182 °C.

`Cc1sc(N2CCCCC2)nc1CCl` registered a melting point of 79 to 80 °C.

In turn, `C=CCNc1c(CO)cnc2cn(C)nc12` displayed a melting point of 151 to 159 °C.

As to `NC(=O)c1ccccc1NC(=S)NC(=O)c1ccccc1`, the melting point lay in the range of 190 to 192 °C.

As to `CCOC(=O)N1CCN(C(=CNc2cccc(OC)c2)C(=O)OC)CC1`, the melting point lay in the range of 120 to 122 °C.

In turn, `N#CCCn1c(=O)n(C2CCN(CCNC(=O)c3ccc(F)cc3)CC2)c2ccccc21` had a melting point of 172 °C.

`Nc1ncnc2c1ncn2C1OC(CNC=O)C(O)C1O` (centres undefined): the melting point lay within 212 to 213 °C.

For the molecule `Cn1c(CN2C(=O)C3(COc4cc5c(cc43)CCO5)c3ccccc32)nc2ccccc21` (centres undefined), the melting point lay within 244 to 246 °C.

`Cc1ccc2cccc(OCC(=O)c3ccc(Cl)cc3)c2n1` yielded a melting point of 112 to 113 °C.

As to `Cn1c(=O)c(C#N)c(N2CCN(C(=O)c3ccco3)CC2)c2cc(Cl)ccc21`, the melting point came to 228 °C.

In turn, `Cn1nc(-c2sc(C(=O)NCc3ccccn3)nc2-c2ccccc2)ccc1=O` returned a melting point of 189 to 190 °C.

In the case of `CC=CCn1c(C)c(C)c2cnnc(OCc3ccccc3)c21`, the melting point is 81 to 84 °C.

As to `C=CCOC(=O)C1N2C(=O)C(NC(=O)CC(=O)OCC)C2S(=O)(=O)C1(C)C` (centres undefined), the melting point was 114 to 115 °C.

Consider `CC1=Nc2ccccc2N(Cc2ccccc2)C(=O)C1C/C=C/c1ccccc1` (centres undefined), for which the melting point fell in the range of 152 to 154 °C.

`O=C(C=CC(=O)Nc1ccccc1)NCc1cc(Br)cc2[nH]c(=O)c(=O)[nH]c12` displayed a melting point above 250 °C.

With `CC(=O)NC[C@H]1CN(c2ccc(N3CCN(C(=O)CCC(=O)c4ccc(C(N)=O)cc4)CC3)c(F)c2)C(=O)O1`, the melting point was above 250 °C.

For the molecule `NCC1CCn2c(c(C3=C(c4cccc(C(F)(F)F)c4)C(=O)NC3=O)c3ccccc32)C1` (centres undefined), the melting point lay within 202 to 204 °C.

For the molecule `Cc1cccc(Nc2cc(Nc3ccc(OCC(O)CN(C)C)cc3)ncn2)c1` (centres undefined), the melting point was in the range of 192 to 195 °C.

As to `CCCN(CCC)CC(=O)Nc1ncc(Oc2cc(I)c(OC)cc2C(C)C)c(N)n1`, the melting point lay in the range of 129 to 131 °C.

The molecule `COc1ccc(C(NCCNC(c2ccccc2)c2ccc(OC)cc2)c2ccccc2)cc1` (centres undefined) displayed a melting point of 97 to 98 °C.

The molecule `CCCCCS(=O)(=O)NC(=O)CC(C)c1ccc(OCCOC)cc1Oc1ncc(C(F)(F)F)cc1Cl` (centres undefined) displayed a melting point of 137 °C.

Regarding `CC(C)C(NC(=O)OCc1ccccc1)C(=O)NC(Cc1ccccc1)C(O)C(O)C(Cc1ccccc1)NC(=O)C(NC(=O)OCc1ccccc1)C(C)C` (centres undefined), the melting point lay in the range of 231 to 232 °C.

`COCCOc1ccc(CCCN2C(=O)c3ccccc3C2=O)c(Oc2ncc(C(F)(F)F)cc2Cl)c1` returned a melting point of 101 to 103 °C.

Take `Nc1cc(-c2ccoc2)ccc1Nc1cccc(-n2cccc2)c1`: the melting point lay in the range of 194 to 195 °C.

For `O=P(Oc1ccc(-c2ccc(OP(=O)(c3ccccc3)c3ccccc3)cc2)cc1)(c1ccccc1)c1ccccc1`, the melting point was in the range of 233 to 234 °C.

In turn, `COc1ccc(C(=O)c2cc(F)cc(F)c2)cc1` showed a melting point of 90 °C.

On to `CSc1nc(O)c(C#N)n1C(C)C`, for which the melting point lay within 196 to 198 °C.

The molecule `CN(C)Cc1ccccc1Sc1ccc(F)cc1N` showed a melting point of 56 to 58 °C.

In the case of `COc1cc(OC)nc(C2(C#N)OC(=O)c3c(Cl)ccc(Cl)c32)n1` (centres undefined), the melting point lay in the range of 123 to 126 °C.

As for `CC1C(=O)N(c2ccccc2)c2ccccc21` (centres undefined), the melting point is 77 to 78 °C.

`CC(O)(c1ccccc1)c1cc(Oc2ccc(Cl)cc2)ccc1O` (centres undefined): the melting point is 103 to 104 °C.

`CNC(=N[N+](=O)[O-])N(C)Cc1ccc(Cl)nc1` displayed a melting point of 136 to 137 °C.

As to `O=C(CBr)c1ccc(O)c(CO)c1`, the melting point was 117 to 119 °C.

With `COc1ccc(CN2Cc3cncn3C(c3ccc(-c4ccsc4)cc3)C2=O)cc1` (centres undefined), the melting point lay within 162 to 164 °C.

In turn, `COC(=O)CCCCCCCCCCCCCCCCCOS(=O)(=O)c1ccc(C)cc1` displayed a melting point of 67.5 to 68.5 °C.

Take `Cc1ccsc1C(=O)C(=CN(C)C)c1ccc(C(F)(F)F)cc1[N+](=O)[O-]`: the melting point came out at 118 °C.

For `O=Cc1c2ccccc2cc2c(C=O)c3ccccc3cc12`, the melting point was in the range of 247 to 250 °C.

For the molecule `CCC1(CC(=O)O)OCCc2nc(-c3ccc(Cl)cc3)sc21` (centres undefined), the melting point lay within 190 to 191 °C.

For `CCSc1nc(-c2ccc(O)cc2)cn1C`, the melting point came to 210 °C.

`CCOC(=O)Cc1c(C(=O)OCC)c(CC)cn1C` showed a melting point of 65 to 67 °C.

Regarding `O=c1c(CCCc2ccncc2)cc2cccnc2n1-c1cccc([N+](=O)[O-])c1`, the melting point lay in the range of 209 to 210 °C.

In the case of `CCC1CN(Cc2ccccc2)C(=O)C(=C2SC=CS2)C1=O` (centres undefined), the melting point fell in the range of 140 to 141 °C.

Molecule `CCCCOc1ccc(S(=O)(=O)C2(C(=O)NO)CCN(Cc3ccc(F)cc3)CC2)cc1` showed a melting point of 112 °C.

For the molecule `CCOC(=O)CCc1nc(-c2cc3ccccc3o2)cs1`, the melting point was 65 to 66 °C.

Regarding `COc1cc2c(cc1N1CCNCC1)OCC2`, the melting point was 108 to 109 °C.

`CC(=O)OCCN(C)Cc1cc(C(=O)c2cccs2)cc(C(C)(C)C)c1O` showed a melting point of 124 to 126 °C.

With `O=C(c1ccc(F)cc1)C1CCN(C2CN(Cc3ccncc3)CCC2O)CC1` (centres undefined), the melting point worked out at 182 °C.

`CN1NCc2c(Cl)ncnc21` showed a melting point of 97 to 99 °C.

On to `CC(C)c1nc(CCO)n(Cc2ccncc2)c1Sc1cc(Cl)cc(Cl)c1`, for which the melting point was in the range of 121 to 122 °C.

Regarding `O=C(Nc1ccc(OCCCN2CCC3(CC2)OCCO3)c2ccccc12)c1cc(F)cc(N2CCCCC2)c1`, the melting point lay in the range of 70 to 72 °C.

As for `COC(=O)[C@H]1NC(=O)[C@H]1NC(=O)Cc1csc(NC(=O)CCl)n1` (relative stereo), the melting point fell in the range of 120 to 122 °C.

In turn, `CCOC(=O)c1c(C)cc2cnc(-c3ccccc3Cl)nc2c1C` gave a melting point of 69.5 to 70.5 °C.

Consider `CC(C)(C)OC(=O)N1CCC[C@@H](OC(=O)c2ccc(OC(C)(C)C)cc2)[C@H](NC(=O)c2ccc(OC(C)(C)C)cc2)C1`, for which the melting point was 126 to 128 °C.

The molecule `COC1(c2ccc(Sc3ccc4c(ccc(=O)n4C)c3)s2)CCOCC1` had a melting point of 119 to 120 °C.

With `CCOC(=O)c1cnc(S(=O)(=O)Cc2ccccc2)n1-c1c(CC)cccc1CC`, the melting point was in the range of 62 to 66 °C.

In the case of `O=C1c2ccccc2C(=O)N1Cn1nnn(-c2ccccc2)c1=S`, the melting point was 130 to 134 °C.

Turning to `O=c1sc2cc(C(F)(F)F)cc([N+](=O)[O-])c2s1`, the melting point was in the range of 110 to 111 °C.

The molecule `Cc1cccc(C)c1NC(=O)CCCl` gave a melting point of 131 °C.

In turn, `O=C(C(=O)c1ccc(C(F)(F)F)cc1)c1ccc(C(F)(F)F)cc1` had a melting point of 141 to 142 °C.

The molecule `CC(C)(C)c1ccc(CCOc2ccnc3c(F)cccc23)cc1` had a melting point of 81 to 82 °C.

The molecule `C[C@@H](NC(=O)c1c[nH]c2ncc(-c3nn(C)c4cc(F)ccc34)nc12)C(=O)N1CC(C#N)C1` showed a melting point of 270 to 277 °C.

In the case of `O=C1COc2cc(F)c([N+](=O)[O-])cc2N1`, the melting point was in the range of 200 to 202 °C.

What is called melting point is the temperature of the solid-liquid transition.
